From patent US8188059B2, “Compounds and methods for modulating expression of GCGR” (Isis Pharmaceuticals, Inc., priority 2006, dated 2012)
Strand notation (5' to 3'): a small letter for the sugar, then the base; units joined by * are phosphorothioate-linked, units joined directly phosphodiester-linked; [ ] holds rarer units or linkages, { } end groups; capitals alone tell only the bases. e = 2'-O-(2-methoxyethyl) (MOE); k = constrained ethyl (cEt); [5mC] = 5-methylcytosine; d = 2'-deoxy (DNA)

Experiments:
PTP1B mRNA [1] = assay: Antisense inhibition of human PTP1B in HepG2 cells at 25 nM (Example 24, Table 85); format: cell-based
Method: Short antisense compounds targeted to a PTP1B nucleic acid were tested for their effects on PTP1B mRNA in vitro. Cultured HepG2 cells at a density of 10000 cells per well in a 96-well plate were treated with 25 nM of antisense oligonucleotide. After the treatment period, RNA was isolated from the cells and PTP1B mRNA levels were measured by quantitative real-time PCR, as described herein. PTP1B mRNA levels were adjusted according to total RNA content as measured by RIBOGREEN®. Results are presented as percent inhibition (% Ihib) of PTP1B, relative to untreated control cells.

PTP1B mRNA [2] = assay: Antisense inhibition of human PTP1B in HuVEC cells at 3 nM (Example 23, Table 84); format: cell-based
Method: Short antisense compounds targeted to a PTP1B nucleic acid were tested for their effects on PTP1B mRNA in vitro. Cultured HuVEC cells at a density of 5000 cells per well in a 96-well plate were treated as described herein with 3 nM of short antisense compound. After the treatment period, RNA was isolated from the cells and PTP1B mRNA levels were measured by quantitative real-time PCR, as described herein. PTP1B mRNA levels were adjusted according to total RNA content as measured by RIBOGREEN®. Results are presented as percent inhibition of PTP1B (% Inhib), relative to untreated control cells.

GCGR mRNA = assay: Antisense inhibition of GCGR in HepG2 cells, 25-200 nM (Example 21, Table 79); format: cell-based, human; conditions: for percent reduction in GCGR mRNA: HepG2 cells, relative to untreated control cells
Method: Short antisense compounds targeted to a GCGR nucleic acid were tested for their effects on GCGR mRNA in vitro.
Cultured HepG2 cells at a density of 10000 cells per well in a 96-well plate were treated as described herein with 25, 50, 100 or 200 nM of antisense oligonucleotide. After the treatment period, RNA was isolated from the cells and GCGR mRNA levels were measured by quantitative real-time PCR, as described herein. GCGR mRNA levels were adjusted according to total RNA content as measured by RIBOGREEN®. Results are presented as percent reduction in GCGR mRNA, relative to untreated control cells.

ApoB mRNA = ApoB mRNA in liver of Balb/c mice, single i.p. dose 8, 4, 2 or 1 μmol/kg, with ED50 (Example 28, Table 92); format: in vivo, mouse; conditions: ApoB mRNA in liver, single i.p. administration
Method: The short antisense compounds tested were ISIS 387462 and ISIS 398296. Each dose group consisted of four animals. A 5-10-5 MOE gapmer was used for a control treatment. Mice were sacrificed approximately 48 hours following the final dose. Liver tissue was collected for RNA isolation, and blood was collected for serum chemistry analyses. ApoB mRNA levels were measured by real-time PCR as described herein. ApoB mRNA levels were normalized to RNA levels as determined by RIBOGREEN, and are presented in Table 92 as percent inhibition relative to ApoB mRNA levels in saline-treated control animals.
At the 8 umol/kg dose, ApoB inhibition by the short antisense compounds was greater than observed with a 5-10-5 MOE gapmer at an equivalent dose. […] Triglycerides were reduced at the highest dose.

monkey GCGR mRNA = assay: Antisense inhibition of GCGR in primary monkey hepatocytes, 25-200 nM (Example 21, Table 80); format: cell-based; conditions: relative to untreated control cells
Method: Additional short antisense compounds targeted to a GCGR nucleic acid were tested for their effects on monkey GCGR mRNA in vitro. Cultured primary monkey hepatocytes were treated as described herein with 25, 50, 100 or 200 nM of short antisense compound. After the treatment period, RNA was isolated from the cells and GCGR mRNA levels were measured by quantitative real-time PCR, as described herein. GCGR mRNA levels were adjusted according to total RNA content as measured by RIBOGREEN®. Results are presented in Table 80 as percent reduction in GCGR mRNA, relative to untreated control cells.

**Q.** “404139 (antisense eG*eT*dG*d[5mC]*dA*d[5mC]*dA*d[5mC]*dA*dG*d[5mC]*dT*eG*eA) [compound 404139]” was tested. Which “% Inhib (PTP1B mRNA)” value (PTP1B mRNA [1]) did it give?
**A.** 45%

**Q.** What about the “% Inhib (PTP1B mRNA)” value (PTP1B mRNA [2]) of the same substance?
**A.** 80%

**Q.** How did the “GCGR mRNA” value (GCGR mRNA; HepG2 cells, 25, 50, 100 or 200 nM) turn out when “ISIS 327161: GCGR; 3-10-3 MOE gapmer (antisense eA*eG*e[5mC]*dT*dG*d[5mC]*dT*dG*dT*dA*d[5mC]*eA*eT*e[5mC])” was run?
**A.** reduced GCGR mRNA in a dose-dependent manner

**Q.** How did the ED50 (ApoB mRNA) turn out when “ISIS 398296: ApoB; GGTACATGGAAGTC 2-10-2 (6′S)-6′-methyl-Methyleneoxy BNA Unmodified Cytosines (antisense kG*kG*dT*dA*dC*dA*dT*dG*dG*dA*dA*dG*kT*kC)” was run?
**A.** 8.7 mg/kg

**Q.** “327161 (antisense eA*eG*e[5mC]*dT*dG*d[5mC]*dT*dG*dT*dA*d[5mC]*eA*eT*e[5mC]) [compound 327161]” was tested. Which “percent reduction in GCGR mRNA” value (monkey GCGR mRNA; 25 nM) did it give?
**A.** −19

**Q.** And the “percent reduction in GCGR mRNA” value (monkey GCGR mRNA; 50 nM)?
**A.** −33

**Q.** What about the “percent reduction in GCGR mRNA” value (monkey GCGR mRNA; 100 nM) of the same substance?
**A.** −55

**Q.** And the “percent reduction in GCGR mRNA” value (monkey GCGR mRNA; 200 nM)?
**A.** −54

**Q.** What about the “percent reduction in GCGR mRNA” value (GCGR mRNA; 25 nM) of the same substance?
**A.** −36

**Q.** What about the “percent reduction in GCGR mRNA” value (GCGR mRNA; 50 nM) of the same substance?
**A.** −30

**Q.** What about the “percent reduction in GCGR mRNA” value (GCGR mRNA; 100 nM) of the same substance?
**A.** −33

**Q.** And the “percent reduction in GCGR mRNA” value (GCGR mRNA; 200 nM)?
**A.** −64

**Q.** Which “% Inhib (PTP1B mRNA)” value (PTP1B mRNA [1]) does the source give for “404140 (antisense eG*e[5mC]*dA*d[5mC]*dA*d[5mC]*dA*dG*d[5mC]*dT*dG*dA*eG*eG) [compound 404140]” here?
**A.** 93%

**Q.** And the “% Inhib (PTP1B mRNA)” value (PTP1B mRNA [2])?
**A.** 73%
